The subject of data set [1] is amber codon (UAG) in GFP templates. As to the kind of experiment: Amber codon suppression in E. coli cell-free translation system (GFP fluorescence). The data set is classed as biochemical. From the text: FIG. 22. Comparative analysis of amber codon suppression efficiencies in E. coli cell-free translation system with different nnAA/o-tRNA/aaRS combinations. A: The structure of nnAAs used here. B-D: Suppression Amber suppression of A_151X template. The suppression efficiency is defined as a ratio compared to the fluorescence of percentage of wild type eGFP fluorescence wild type eGFP without stop codon inside its ORF. B: Incorporation of four nnAAs by three PylRS variants. The final concentrations of PylTcua, PylRS variants and nnAAs were 20 μM, 20 μM and 1 mM, respectively. C: AzF incorporation by four MjY tRNA variants. MjY1, MjY2, MjY3 and MjY4 are corresponding to the tRNAs pAzPhe1, pAzPhe2, pAzPhe3 and tRNAopt CUA in original publication^35,37. The final concentrations of MjYtRNA variants, AzFRS and AzF are 10 μM, 10 μM and 1 mM, respectively. D: Effect of o-tRNA and o-aaRS concentrations on amber codon suppression efficiency of MjY2/AzFRS/AzF and PylT/PylRSAF/PrK. E: The effect of codon contexts on nnAA incorporation efficiency in two orthogonal systems. The concentration of MjY2 and AzFRS were 10 μM for both while PylT and PylRS were used at 20 and 30 μM, respectively. Four templates, named A_1X, A_151X, B_1X and B_151X, were used in the analysis (sequences are shown in SI). A and B denote the template backbones with different codon biases where codon vocabulary in A is optimized for eGFP while in B it is simplified mostly utilizing the unique codon to decode each amino acid type. The numeric indicates the position of amber codon in ORF sequence. The relative activity in individual reactions is given as a percent of fluorescent intensity provided while obtained when using EctRNATyr(cua) as a suppressor.
(§1) The tRNA-depleted lysate is prepared as described by ethanolamine-sepharose affinity chromatography^24. DNA templates with two GFP ORFs: one of optimized codon composition for eGFP (Template A) and the other of simplified codon composition for sGFP (Template B), were used. Mutations to amber or AGG-codon were introduced either by synthesizing the whole gene fragments as gBlocks by IDT to change all the 6 Arg codons to AGG simultaneously or using PCR with the proper primers to introduce mutations with less than 3 nucleotides at the same position. The obtained fragments were cloned into the pLTE or pOPINE-based plasmids following the standard Gibson assembly cloning procedure (NEB). The correct plasmids with desired mutations were purified by Midiprep Kit (Qiagen) to ensure good quality for cell free protein translation. The sequence information of all the open reading frames used here is provided in SI.
The cell-free translation reactions for GFP production were performed following the standard protocol^60 with the optimized Mg^2+ at 10 mM concentration. 0.35 volume of depleted lysate, same as that for the standard S30 lysate, was used in the reaction. […] GFP production was monitored on a fluorescence plate reader (Synergy) at 30° C. for 3-5 h at 485 nm excitation and 528 nm emission wavelengths.
We tested the recombinant forms of PylRS variants for their ability to support in vitro synthesis of eGFP synthesis from the template containing amber-codon at 151 position (A_151X, SI) in the presence of an evolved o-tRNA harboring U25C mutation in its anticodon stem (PylT)^14 and nnAA-substrates BCN, TCO or TCO*. Another nnAA PrK (FIG. 22A) for also used for azide-coupling known to be accommodated and charged to tRNA by wt MbPylRS30 and […], MmPylRS5, was also tested. […] Neither of these large aliphatic alkynes or alkenes could be incorporated by either of three PylRS mutants with efficiency above 5%. […] The latter confirms the promiscuity of engineered PylRS variant to various substrates reported in a comprehensive study^35

A further data set concerns AGG codon in GFP ORFs. As to the kind of experiment: AGG reassignment to AzF in cell-free system depleted of tRNA species decoding AGG. The data set is classed as biochemical, E. coli. The note with it: all four templates. The protocol: FIG. 23. AGG reassignment to AzF in the context of four GFP ORFs. The GFP protein was expressed in cell-free system depleted of tRNA species decoding AGG codon with and without addition of MjY suppression system (MjY2/AzFRS). The final concentrations for MjY2, AzFRS, AzF are were 10 μM, 10 μM and 1 mM, respectively. The anticodon in MjY2 was changed to CCU in order to reassign AGG codon to AzF.
as §1, with “The obtained fragments were cloned into the pLTE or pOPINE-based plasmids following the standard Gibson assembly cloning procedure (NEB). The correct plasmids with desired mutations were purified by Midiprep Kit (Qiagen) to ensure good quality for cell free protein translation.” left out
The cell-free translation reactions for GFP production were performed following the standard protocol^60 with the optimized Mg^2+ at 10 mM concentration. […] GFP production was monitored on a fluorescence plate reader (Synergy) at 30° C. for 3-5 h at 485 nm excitation and 528 nm emission wavelengths. […]

For data set [2], the system named is amber codon in A_151X template. The experiment in a line: Amber suppression by flexizyme-precharged nnAA-tRNA, A_151X template. The data set is classed as biochemical, E. coli. The note with it: five nnAAs; precharged tRNA 10, 20 or 30 uM. From the text:
FIG. 29. The incorporation efficiency of 5 nnAAs precharged by flexizyme with their respective active group. A: The structure of five activated acid substrates for tRNA acylation by Flexizyme, including L-Propargylglycine 4-chlorobenzyl thioester (Pra-CBT), L-Azidolysine 4-chlorobenzyl thioester (Lys(N3)-CBT), L-Azidohomoalanine 4-chlorobenzyl thioester (Aha-CBT), NE-biotinyl-L-lysine 3,5-dinitrobenzyl ester (Lys(biotin)-DBN) and L-Azidophenylalanine-cyanomethyl ester (AzF-CME). The nnAAs are shown in black while their respective active groups in red. B: The amber suppression efficiency of 5 nnAAs precharged tRNA tested by using A_151X template in the cell free translation system. The precharged tRNA was used to prime the translational reactions at 10, 20 or 30 uM of final tRNA concentration. The flexizyme reaction time and the final concentration of precharged nnAA-tRNAs were indicated.
C-terminal Cys were added into sequence of the affinity clamp protein (pdz-fibronectin Fusion Protein, PDB: 3CH8_A). The purified protein with C-terminal Cys was immobilized on Iodoacetyl Gel (UltraLink®) using manufacture's protocol. tRNA charging by flexizyme for amber suppression: The acylation reaction were performed as described before^62. 1 volume of 250 μM o-tRNA was mixed with the same volume of 50 μM Fx ([…]) and 3 volume of water. […]

The next data set has as its system GCU Ser isoacceptor. As to the kind of experiment: Kissing loop binding to tRNA isoacceptor. More on the design: species or system E. coli. The settings on record: read-out: affinity. Here is the method:
Kissing loop (KL) binds GCU Ser isoacceptor with high affinity (5-50 nM) through the formation of quasi-continuous double helix stabilized by the common stacking column between the planes of the nucleotide pairs (FIG. 16A). E. coli S30 lysate can be to a large extent depleted of total tRNA by the chromatography on ethanolamine sepharose. After the depletion lysate retains ˜60% of translational efficiency of its parental one if supplemented by commercially available total tRNA fraction (FIG. 16 B).

The mark [3] stands for this setting: A_151X template, % of wild type eGFP fluorescence, PylTcua 20 μM, PylRS variant 20 μM, nnAA 1 mM.

“Also recorded” adds a separate entry of the source.

In the case of `[N-]=[N+]=Nc1ccc(C[C@H](N)C(=O)O)cc1` [AzF, p-azidophenylalanine], in data set [1] (GFP151AzF sample, TAG codon), the “protein containing AzF (LC-MS/MS)” value is “more than 80%”. The “GFP protein modified with AzF” value with AGG codon in GFP ORFs is given as “more than 80%”. In addition, the “amber suppression efficiency among flexizyme-charged nnAAs” value in data set [2] is on record as “best amber-codon incorporation efficiency; also recorded: highest translational activity”.

Regarding `C#CCN[C@@H](CCCCN)C(=O)O` [PrK, N-Propargyl-Lysine], in data set [1] (A_151X template), the “incorporation with TCORS” value is reported as “essentially failed to incorporate”. Further, in data set [1] (setting [3]), the “UAG suppression efficiency with BCNRS” value is on record as “essentially failed to incorporate” and the “UAG suppression efficiency with PylRSAF” value was 13%.

Turning to Bicyclo [6.1.0] nonyne-Lysine [BCN], the “UAG suppression efficiency with BCNRS” value in data set [1] (setting [3]) was 3%. The “efficiency of UAG suppression by either of three PylRS mutants” value in data set [1] (A_151X template, BCNRS, TCORS, PylRSAF) is on record as “very low”.

B1: MjY4: MjY tRNA with six mutations described in a later report (nucleic acid)
DNA: CCGGCGGTAGTTCAGCAGGGCAGAACGGCGGACTCTAAATCCGCATGGCAGGGGTTCAAATCCCCTCCGCCGGACCA
modifications: RNA, all phosphodiester, T or U not given here
notes: MjY tRNA with six mutations described in a later report
Turning to B1, the “efficiency of MjY2 relative to the listed tRNA in AzF incorporation” value in data set [1] (A_151X, 10 μM tRNA, 10 μM AzFRS, 1 mM AzF) is reported as “slightly better”.

B2: KL: RNA aptamer binding the anticodon loop of tRNA(Ser)GCU; SEQ ID NO:7 (nucleic acid)
chain: GGTAGTGAGGTAGTTAGCAGATACCTCACTACCAACACACACACAACACACACACAACACACAAGCT
modifications: “kissing loop” coding sequence with linker
Turning to B2, the Kd in the data set on GCU Ser isoacceptor is 5 to 50 nM.

The values above are taken from patent publication US20180171321A1, “PLATFORM FOR A NON-NATURAL AMINO ACID INCORPORATION INTO PROTEINS” (THE UNIVERSITY OF QUEENSLAND, priority 2015, published 2018).
